From patent publication US20120171144A1, “METHODS OF TREATING, REDUCING AND INHIBITING THE APPEARANCE OF AGEING IN THE SKIN” (priority 2006, published 2012)

How the values were obtained:
[1] = test system: skin elastin; assay: 3H-elastin cleavage assay, skin elastin; type: biochemical
Method: (§1) FIG. 2: granzyme B degrades elastin in vitro. Granzyme B was incubated with ^3H-elastin for 7 days at room temperature. Elastase was incubated with ^3H-elastin for 2 hours. Supernatants containing the soluble elastin cleavage fragments were collected and counted. Data is represented as fold increase in radioactivity over the control (elastin only). (n=2)
(§2) Tritiated elastin was prepared with the modifications as described in Banda, M. J. and Werb, Z. (1981) Biochem J 193: 589-605 and Gordon, S., Werb, Z. and Cohn, Z. A. (1976) in In Vitro Methods in Cell Mediated and Tumor Immunity, eds. Bloom, B. R. and David, J. R. (Academic Press, New York), pages 349-350. 1 mg of skin or aortic elastin was diluted in 1 ml dH2O and pHed to 9.2. 1 mCi NaB3H4 (PerkinElmer, Waltham Mass.) and 2 mg of non-radioactive […] (Sigma, St. Louis, Mo.) was added. After 2 hours of incubation, the pH was adjusted to 3.0 and the elastin was incubated for an additional 30 minutes. The elastin was centrifuged for 3 minutes at 5000×g and the pellet was repeatedly washed to remove excess NaB3H4. […] The radioactivity of the soluble, cleaved elastin fragments in the supernatant was counted in Ready Safe Scintillation Fluid (Beckman-Coulter, Fullerton, Calif.). The radioactivity of the cleaved, soluble elastin fragments was 4.8 times and 2.7 times higher than background for skin and aortic elastin, respectively (FIG. 2).

[2] = test system: aortic elastin; assay: 3H-elastin cleavage assay, aortic elastin; type: biochemical
Method: as §1, §2

[3] = 25 μg elastase, 2 hours, positive control
[4] = 0.15 mg 3H-elastin, granzyme B 0.75 μg added 5 times, room temperature, 7 days

Row | Substance | radioactivity increase over background [1, 3] [fold] | radioactivity increase over background [2, 3] [fold] | radioactivity of the cleaved, soluble elastin fragments, higher than background [1, 4] [times] | radioactivity of the cleaved, soluble elastin fragments, higher than background [2, 4] [times]
1 | elastase | 14.9 | 7.7 |  | 
2 | granzyme B: serine protease that is capable of cleaving elastin and other extracellular proteins |  |  | 4.8 | 2.7
